Reference: US20240050428A1 (Cullgen (Shanghai), Inc., priority 2020, published 2024)
pIC50: −log10 of the molar value. Like-named read-outs stand apart in the source and are kept apart here.

Experiments:
MV4;11 cells = experiment: Cell viability assay (CellTiter-Glo) in MV4;11 cells, alone or with gilteritinib; assay type: cell-based; settings: Homo sapiens, MV4;11 cells, CellTiter-Glo, read-out: MV4
MOLM-13 cells = experiment: Cell viability assay (CellTiter-Glo) in MOLM-13 cells, alone or with gilteritinib; assay type: cell-based; settings: Homo sapiens, MOLM-13 cells, CellTiter-Glo
[1] = MV4-11, 72 h, compound alone (without gilteritinib), three days, 11 IC50
[2] = MV4-11, 72 h, compound with gilteritinib 10 nM, three days, 11 IC50 gilteritinib
[3] = MOLM-13, 72 h, compound alone (without gilteritinib), three days, read-out: MOLM-13 IC50
[4] = MOLM-13, 72 h, compound with gilteritinib 20 nM, three days, read-out: MOLM-13 IC50 gilteritinib
[5] = MV4-11, 72 h, with gilteritinib 10 nM, three days, 11 IC50 gilteritinib
[6] = MOLM-13, 72 h, with gilteritinib 20 nM, three days, read-out: MOLM-13 IC50 gilteritinib
[7] = 72 h, compound alone (without gilteritinib), three days, 11 IC50
[8] = 72 h, with gilteritinib 10 nM, three days, 11 IC50 gilteritinib
[9] = 72 h, compound alone (without gilteritinib), three days, read-out: MOLM-13 IC50
[10] = 72 h, with gilteritinib 20 nM, three days, read-out: MOLM-13 IC50 gilteritinib

| Structure (SMILES) | pIC50 (MV4;11 cells; [1]) | pIC50 (MV4;11 cells; [2]) | pIC50 (MOLM-13 cells; [3]) | pIC50 (MOLM-13 cells; [4]) | pIC50 (MV4;11 cells; [5]) | pIC50 (MOLM-13 cells; [6]) | also measured |
| --- | --- | --- | --- | --- | --- | --- | --- |
| N#Cc1cccc2nc(-c3cnn([C@H]4C[C@H](CCCNc5ccc6c(c5)C(=O)N(C5CCC(=O)NC5=O)C6=O)C4)c3)cnc12 (stereo partly drawn) [GS-233, 2-(1-(trans-3-(3-((2-(2,6-Dioxopiperidin-3-yl)-1,3-dioxoisoindolin-5-yl)amino)propyl)cyclobutyl)-1H-pyrazol-4-yl)quinoxaline-5-carbonitrile] | 6.00 to 7.00 |  | 6.00 to 7.00 |  | 7.00 to 8.00 | 7.00 to 8.00 |  |
| O=C1CCC(N2C(=O)c3ccc(NC[C@H]4C[C@H](n5cc(-c6cnc7c(N8CCOCC8)cccc7n6)c(C6CC6)n5)C4)cc3C2=O)C(=O)N1 (stereo partly drawn) [GS-266, 5-(((trans-3-(3-Cyclopropyl-4-(5-morpholinoquinoxalin-2-yl)-1H-pyrazol-1-yl)cyclobutyl)methyl)amino)-2-(2,6-dioxopiperidin-3-yl)isoindoline-1,3-dione] | > 8.00 |  | > 8.00 |  | > 8.00 | > 8.00 |  |
| O=C1CCC(N2C(=O)c3ccc(NCCNc4cccc(N5CCC(n6cc(-c7cnc8ccccc8n7)cn6)CC5)c4)cc3C2=O)C(=O)N1 (stereo not shown) [GS-351, 2-(2,6-Dioxopiperidin-3-yl)-5-((2-((3-(4-(4-(quinoxalin-2-yl)-1H-pyrazol-1-yl)piperidin-1-yl)phenyl)amino)ethyl)amino)isoindoline-1,3-dione] |  |  |  |  |  |  | pIC50 (MV4;11 cells; [7]): 7.00 to 8.00; pIC50 (MV4;11 cells; [8]): 7.00 to 8.00; pIC50 (MOLM-13 cells; [9]): 7.00 to 8.00; pIC50 (MOLM-13 cells; [10]): > 8.00 |
| O=C1CCC(N2C(=O)c3ccc(NCC4CC5(C4)CC(n4cc(-c6cnc7ccccc7n6)cn4)C5)cc3C2=O)C(=O)N1 (stereo not shown) [GS-539, 2-(2,6-Dioxopiperidin-3-yl)-5-(((6-(4-(quinoxalin-2-yl)-1H-pyrazol-1-yl)spiro[3.3]heptan-2-yl)methyl)amino)isoindoline-1,3-dione] | < 6.00 | 6.00 to 7.00 | < 6.00 | 6.00 to 7.00 |  |  |  |
| O=C1CCC(N2C(=O)c3ccc(NC[C@H]4C[C@@H](n5cc(-c6cnc7ccc(N8CCNCC8)cc7n6)cn5)C4)cc3C2=O)C(=O)N1 (stereo partly drawn) [GS-186, 2-(2,6-Dioxopiperidin-3-yl)-5-(((cis-3-(4-(7-(piperazin-1-yl)quinoxalin-2-yl)-1H-pyrazol-1-yl)cyclobutyl)methyl)amino)isoindoline-1,3-dione] | < 6.00 |  | < 6.00 |  | < 6.00 | 6.00 to 7.00 |  |
| O=C1CCC(N2C(=O)c3ccc(NCCC[C@H]4C[C@H](n5cc(-c6cnc7ccc(N8CCOCC8)cc7n6)cn5)C4)cc3C2=O)C(=O)N1 (stereo partly drawn) [GS-188, 2-(2,6-Dioxopiperidin-3-yl)-5-((3-(trans-3-(4-(7-morpholinoquinoxalin-2-yl)-1H-pyrazol-1-yl)cyclobutyl)propyl)amino)isoindoline-1,3-dione] | 7.00 to 8.00 |  | 7.00 to 8.00 |  | > 8.00 | > 8.00 |  |
| O=C1CCC(N2C(=O)c3ccc(NCCCCCC(=O)N4CCC(n5cc(N6CCOCC6)cn5)CC4)cc3C2=O)C(=O)N1 (stereo not shown) [GS-047, 2-(2,6-Dioxopiperidin-3-yl)-5-((6-(4-(4-morpholino-1H-pyrazol-1-yl)piperidin-1-yl)-6-oxohexyl)amino)isoindoline-1,3-dione] | 6.00 to 7.00 |  | 6.00 to 7.00 |  | 7.00 to 8.00 | 7.00 to 8.00 |  |
| O=C1CCC(N2C(=O)c3ccc(NCCCCCC(=O)N4CC(n5cc(-c6cnc7cccc(Br)c7n6)cn5)C4)cc3C2=O)C(=O)N1 (stereo not shown) [GS-062, 5-((6-(3-(4-(8-Bromoquinoxalin-2-yl)-1H-pyrazol-1-yl)azetidin-1-yl)-6-oxohexyl)amino)-2-(2,6-dioxopiperidin-3-yl)isoindoline-1,3-dione] |  |  |  |  |  |  | pIC50 (MV4;11 cells; MV4-11, 72 h, with 10 nM gilteritinib, 3 days, 11 IC50 gilteritinib): 5.72; pIC50 (MV4;11 cells; MV4-11, 72 h, without gilteritinib, 3 days, 11 IC50): 5.03; pIC50 (MOLM-13 cells; MOLM-13, 72 h, with 20 nM gilteritinib, 3 days, read-out: MOLM-13 IC50 gilteritinib): 7.14; pIC50 (MOLM-13 cells; MOLM-13, 72 h, without gilteritinib, 3 days, read-out: MOLM-13 IC50): < 5.00 |
| Cc1nn([C@H]2C[C@@H](CCCNc3ccc4c(c3)C(=O)N(C3CCC(=O)NC3=O)C4=O)C2)cc1-c1cnc2cc(N3CCNCC3)ccc2n1 (stereo partly drawn) [GS-434, 2-(2,6-dioxopiperidin-3-yl)-5-((3-(cis-3-(3-methyl-4-(6-(piperazin-1-yl)quinoxalin-2-yl)-1H-pyrazol-1-yl)cyclobutyl)propyl)amino)isoindoline-1,3-dione] | > 8.00 | > 8.00 | 7.00 to 8.00 | > 8.00 |  |  |  |
| O=C1CCC(N2C(=O)c3ccc(NCCCC(=O)N4CCC(c5ccccc5)CC4)cc3C2=O)C(=O)N1 (stereo not shown) [GS-148, 2-(2,6-Dioxopiperidin-3-yl)-5-((4-oxo-4-(4-phenylpiperidin-1-yl)butyl)amino)isoindoline-1,3-dione] |  |  |  |  |  |  | pIC50 (MV4;11 cells; [7]): < 6.00; pIC50 (MV4;11 cells; [8]): 6.00 to 7.00; pIC50 (MOLM-13 cells; [9]): 6.00 to 7.00; pIC50 (MOLM-13 cells; [10]): 7.00 to 8.00 |
| O=C1CCC(N2C(=O)c3ccc(CNC4CC(n5cc(-c6cnc7ccccc7n6)c(C6CC6)n5)C4)cc3C2=O)C(=O)N1 (stereo not shown) [GS-461, 5-(((3-(3-cyclopropyl-4-(quinoxalin-2-yl)-1H-pyrazol-1-yl)cyclobutyl)amino)methyl)-2-(2,6-dioxopiperidin-3-yl)isoindoline-1,3-dione] | < 6.00 | < 6.00 | < 6.00 | < 6.00 |  |  |  |

The next lines start with results.

| pIC50 (MV4;11 cells; [1]) | pIC50 (MV4;11 cells; [2]) | pIC50 (MOLM-13 cells; [3]) | pIC50 (MOLM-13 cells; [4]) | pIC50 (MV4;11 cells; [5]) | pIC50 (MOLM-13 cells; [6]) | Structure (SMILES) | also measured |
| --- | --- | --- | --- | --- | --- | --- | --- |
| 6.00 to 7.00 | > 8.00 | 6.00 to 7.00 | > 8.00 |  |  | CN1CCC(c2ccc3ncc(-c4cnn(CCCCCCNc5ccc6c(c5)C(=O)N(C5CCC(=O)NC5=O)C6=O)c4)nc3c2)CC1 (stereo not shown) [GS-548, 2-(2,6-Dioxopiperidin-3-yl)-5-((6-(4-(7-(1-methylpiperidin-4-yl)quinoxalin-2-yl)-1H-pyrazol-1-yl)hexyl)amino)isoindoline-1,3-dione] |  |
| 6.00 to 7.00 | 7.00 to 8.00 | < 6.00 | 7.00 to 8.00 |  |  | Cc1cccc(-c2cn([C@H]3C[C@H](CNc4ccc5c(c4)C(=O)N(C4CCC(=O)NC4=O)C5=O)C3)nc2C(F)(F)F)n1 (stereo partly drawn) [GS-439, 2-(2,6-dioxopiperidin-3-yl)-5-(((trans-3-(4-(6-methylpyridin-2-yl)-3-(trifluoromethyl)-1H-pyrazol-1-yl)cyclobutyl)methyl)amino)isoindoline-1,3-dione] |  |
| 7.00 to 8.00 | > 8.00 | 7.00 to 8.00 | > 8.00 |  |  | COc1cccnc1-c1cnn([C@H]2C[C@H](CCCNc3ccc4c(c3)C(=O)N(C3CCC(=O)NC3=O)C4=O)C2)c1 (stereo partly drawn) [GS-494, 2-(2,6-Dioxopiperidin-3-yl)-5-((3-(trans-3-(4-(3-methoxypyridin-2-yl)-1H-pyrazol-1-yl)cyclobutyl)propyl)amino)isoindoline-1,3-dione] |  |
| 6.00 to 7.00 |  | < 6.00 |  | 7.00 to 8.00 | 6.00 to 7.00 | Nc1cccc(-c2cn([C@H]3C[C@H](CNc4ccc5c(c4)C(=O)N(C4CCC(=O)NC4=O)C5=O)C3)nc2C2CC2)n1 (stereo partly drawn) [GS-273, 5-(((trans-3-(4-(6-aminopyridin-2-yl)-3-cyclopropyl-1H-pyrazol-1-yl)cyclobutyl)methyl)amino)-2-(2,6-dioxopiperidin-3-yl)isoindoline-1,3-dione] |  |
| 7.00 to 8.00 | > 8.00 | 7.00 to 8.00 | > 8.00 |  |  | Cc1nn([C@H]2C[C@@H](CCCNc3ccc4c(c3)C(=O)N(C3CCC(=O)NC3=O)C4=O)C2)cc1-c1cnc2cc(N3CCN(C)CC3)ccc2n1 (stereo partly drawn) [GS-428, 2-(2,6-dioxopiperidin-3-yl)-5-((3-(cis-3-(3-methyl-4-(6-(4-methylpiperazin-1-yl)quinoxalin-2-yl)-1H-pyrazol-1-yl)cyclobutyl)propyl)amino)isoindoline-1,3-dione] |  |
| 7.00 to 8.00 |  | 6.00 to 7.00 |  | > 8.00 | > 8.00 | O=C1CCC(N2C(=O)c3ccc(NCCC45CC(C(=O)N6CCC(n7cc(-c8cnc9ccccc9n8)cn7)CC6)(C4)C5)cc3C2=O)C(=O)N1 (stereo not shown) [GS-194, 2-(2,6-Dioxopiperidin-3-yl)-5-((2-(3-(4-(4-(quinoxalin-2-yl)-1H-pyrazol-1-yl)piperidine-1-carbonyl)bicyclo[1.1.1]pentan-1-yl)ethyl)amino)isoindoline-1,3-dione] |  |
| > 8.00 |  | 7.00 to 8.00 |  | > 8.00 | > 8.00 | O=C1CCC(N2C(=O)c3ccc(NC[C@H]4C[C@H](n5cc(-c6nccc7[nH]ccc67)c(C6CC6)n5)C4)cc3C2=O)C(=O)N1 (stereo partly drawn) [GS-278, 5-(((trans-3-(3-Cyclopropyl-4-(1H-pyrrolo[3,2-c]pyridin-4-yl)-1H-pyrazol-1-yl)cyclobutyl)methyl)amino)-2-(2,6-dioxopiperidin-3-yl)isoindoline-1,3-dione] |  |
| 6.00 to 7.00 |  | < 6.00 |  | < 6.00 | 6.00 to 7.00 | CN1CCN(c2ccc3ncc(-c4cnn(C5CC(CCCNc6ccc7c(c6)C(=O)N(C6CCC(=O)NC6=O)C7=O)C5)c4)nc3c2)CC1 (stereo not shown) [GS-172, 2-(2,6-Dioxopiperidin-3-yl)-5-((3-(3-(4-(7-(4-methylpiperazin-1-yl)quinoxalin-2-yl)-1H-pyrazol-1-yl)cyclobutyl)propyl)amino)isoindoline-1,3-dione] |  |
